Reference: US20080318910A1, “Controlled-Release Oral Dosage Form” (MISTRAL PHARMA, INC., priority 2005, published 2008)
Converted amounts (≈) assume the structure as drawn.

Experiment: physchem

| solubility (aqueous buffer, solubility, pH higher than 4.8) | solubility (aqueous buffer, solubility, pH lower than 4.8) | SMILES | solubility (pH 2, simulated gastric fluid) | solubility (pH 5.5, aqueous buffer) |
| --- | --- | --- | --- | --- |
| ~333000 µg/mL (≈ 2970 mM) | ~2500 µg/mL (≈ 22.3 mM) | C/C=C/C=C/C(=O)O [Sorbic acid] |  |  |
|  |  | CCC(COC(=O)c1cc(OC)c(OC)c(OC)c1)(c1ccccc1)N(C)C (stereo not shown) [Trimebutine] | ~11000 µg/mL (≈ 28.4 mM) | 1000 µg/mL (≈ 2.58 mM) |
